Tested on: IL 1-induced release of neutral protease from rabbit articular chondrocytes
Test: Inhibition of the IL 1-induced release of neutral protease from rabbit articular chondrocytes (azocoll neutral protease assay)
Format: cell-based
Conditions: Oryctolagus cuniculus, Chondrocyte, purified human IL 1, 24 h after IL 1 stimulation, read-out: % Inhibition (S.D)
Protocol: The ability of the compounds of the inventions to inhibit interleukin 1 is measured by the ability of the test compounds to inhibit the IL 1-induced release of neutral protease from rabbit articular chondrocytes.
This assay is carried out as follows:
Isolation of rabbit chondrocytes:
Male New Zealand White rabbits are anesthetized with 50 mg/kg of ketamine (i.m.) and killed by an intracardiac injection of 3 mls. of Nembutal. The knee joints of both legs are resected and the articular surfaces are exposed. Cartilage slices are obtained using a scalpel and are placed in a tissue culture dish (100 mm diameter) containing 10 mls of Hank's balanced salt solution (HBSS). The chondrocytes within the cartilage slices are then liberated by a series of enzyme digestions. The slices are incubated for 10 min. at 37° C. in 0.05% hyaluronidase (Sigma H-3884), rinsed with HBSS and incubated with 0.2% trypsin (Sigma T-2395) for 10 min. at 37° C. The slices are rinsed again and incubated for 10 mins. at 37° C. with 1.2% collagenase (Sigma C-5138). The slices are then rinsed again with HBSS and resuspended in 10 ml of Ham's F-12 medium containing 10% fetal bovine calf cerum (FCS) and 0.2% collagenase and incubated overnight at 37° C. in a 5% CO2 incubator. The next day, the medium containing the digested cartilage fragments and liberated chondrocytes is transferred to a 15 ml centrifuge tube and the cells are collected by centrifugation and washed twice and resuspended in Ham's F-12 medium. The cells are then plated into 24-well tissue culture plates (2×10^5 cells/well) and incubated at 37° C. until confluent (usually 4-6 days).
Stimulation of chondrocytes and drug treatment:
The confluent chondrocytes are rinsed twice with serum-free Ham's F-12 medium and 1 ml is added to each well. Fifty μl of purified human IL 1 (100 Units/ml; Genzyme Corporation, Boston, MA) is then added to stimulate these cells to secrete neutral protease. To measure drug effects, the cells are treated with test compound 10 min. prior to addition of IL 1. The standard screening dose is 10 μM. Twenty-four hours after IL 1 stimulation, supernatant fluids are collected and assayed for neutral protease activity.
The neutral protease activity of chondrocyte supernatant fluids is determined by their ability to degrade an insoluble protease substrate, azocoll (Sigma). Supernatants are treated for 10 min. at room temperature with 350 μM p-aminophenylmurcuric acetate to activate the latent enzyme. Three hundred μl of supernatant is then mixed with 500 μl of a 20 mg/ml suspension of azocoll and incubated at 37° C. for 18-24 hrs. with gentle rocking. The mixtures are centrifuged and the amount of substrate hydrolyzed is determined by measuring the absorbance of the supernatant at 520 nm.
Drug effects are calculated as the % change in enzyme activity (absorbance)by supernatants from drug-treated chondrocytes relative to enzyme activity of supernatants from vehicle-treated chondrocytes as follows: [formula]

| SMILES | inhibition at 10 µM | inhibition at 0.1 µM | inhibition at 1 µM |
| --- | --- | --- | --- |
| N#Cc1ccc(N2CCc3nc4cc(Cl)ccc4c(Cl)c3C2)cc1 [Example 1, 4-(7,10-Dichloro-3,4-dihydrobenzo[b][1,6]naphthyridin-2(1H)-yl)benzonitrile] | 22 ± 1% | – | – |
| CCOC(=O)c1ccc(N2CCc3nc4cc(Cl)ccc4c(Cl)c3C2)cc1 [Example 2, 4-(7,10-Dichloro-3,4-dihydrobenzo[b][1,6]naphthyridin-2(1H)-yl)benzoic acid ethyl ester] | 35 ± 16% | – | – |
| CS(=O)(=O)c1ccc(N2CCc3nc4cc(Cl)ccc4c(Cl)c3C2)cc1 [Example 3, 7,10-Dichloro-1,2,3,4-tetrahydro-2-(4-methylsulfonyl)phenylbenzo[b][1,6]naphthyridine] | 62 ± 2% | 69 ± 1% | 66 ± 1% |
| Fc1ccc(N2CCc3nc4cc(Cl)ccc4c(Cl)c3C2)cc1 [Example 4, 7,10-Dichloro-2-(4-fluorophenyl)-1,2,3,4-tetrahydrobenz[b][1,6]naphthyridine] | 76 ± 29% | – | 9 ± 20% |
| N#Cc1ccc(N2CCc3nc4ccccc4c(Cl)c3C2)cc1 [Example 5, 4-(10-Chloro-3,4-dihydrobenzo[b][1,6]naphthyridine-2(1H)-yl)benzonitrile, hemihydrate] | 66 ± 29% | – | – |
| CCOC(=O)c1ccc(N2CCc3nc4ccccc4c(Cl)c3C2)cc1 [Example 8, 4-(10-Chloro-3,4-dihydrobenzo[b][1,6]naphthyridin-2(1H)-yl)benzoic acid ethyl ester] | 91% | 40% | 43% |
| N#Cc1ccc(N2CCc3nc4ccc(Cl)cc4c(Cl)c3C2)cc1 [Example 9, 4-(8,10-Dichloro-3,4-dihydrobenzo[b][1,6]naphthyridin-2(1H)-yl)benzonitrile, 1/4 hydrate] | 86% | – | 43% |
| Cc1ccc2c(Cl)c3c(nc2c1)CCN(c1ccc(C#N)cc1)C3 [Example 10, 4-(10-Chloro-3,4-dihydro-7-methylbenzo[b][1,6]naphthyridin-2(1H)-yl)benzonitrile, 1/5 ethyl acetate] | 33% | – | – |
| N#Cc1ccc(N2CCc3nc4cc(F)ccc4c(Cl)c3C2)cc1 [Example 11, 4-(10-Chloro-7-fluoro-3,4-dihydrobenzo[b][1,6]naphthyridin-2(1H)-yl)benzonitrile, 1/4 hydrate] | < 20% | – | – |
| N#Cc1ccc(N2CCc3nc4cc(Cl)ccc4c(NNc4ccccc4)c3C2)cc1 [Example 12, 4-[7-Chloro-3,4-dihydro-10-(2-phenylhydrazino)benzo[b][1,6]naphthyridin-2(1H)-yl]benzonitrile, hydrate] | 69% | – | – |
